Drawing on patent publication US9394346B2, “Method for producing an amino acid using a bacterium overexpressing an rhtC gene” (priority 1998, dated 2016), this text covers MIC for eight molecules.

The structures appear in SMILES notation.

Holding throughout (format): cell-based, E. coli
One assay deals with N99/pRhtB. The experiment in a line: MIC of amino acids and analogues on M9 agar, strain N99/pRhtB. The note with it: Escherichia coli. The procedure: (§1) Therefore, the effect of the pRhtB and pRhtC plasmids on susceptibility of the strain N99 which is a streptomycin-resistant (Str^R) mutant of the known strain W3350 (VKPM B-1557) to some amino acids and amino acid analogues was tested. Overnight broth cultures (10^9 cfu/ml) of the strains N99/pUC21, N99pUK21, N99/pRhtB and N99/pRhtC were diluted 1:100 in M9 minimal medium and grown for 5 h in the same medium. Then the log phase cultures thus obtained were diluted and about 10^4 viable cells were applied to well-dried test plates with M9 agar (2%) containing doubling increments of amino acids or analogues. Thus the minimum inhibitory concentrations (MIC) of these compounds were examined.

A further assay relates to N99/pRhtC. The experiment in a line: MIC of amino acids and analogues on M9 agar, strain N99/pRhtC. Particulars: Escherichia coli; N99/pRhtC (multicopy rhtC); M9 agar (2%), about 10^4 viable cells, doubling increments. How it is done:
as §1

A further assay relates to N99/pUC21. The experiment in a line: MIC of amino acids and analogues on M9 agar, strain N99/pUC21. The note with it: Escherichia coli; N99/pUC21 (vector control; same data with N99/pUK21); M9 agar (2%), about 10^4 viable cells, doubling increments. The procedure: as §1

One may read the MIC as the least concentration at which growth counts as inhibited. For the molecule `CN(C)CC(N)C(=O)O` (racemic) [4-aza-DL-leucine], the MIC with N99/pRhtB came out at 100 µg/mL; in the assay with N99/pRhtC it was 50 µg/mL; in the assay on N99/pUC21, 50 µg/mL.

Consider `NCCSC[C@H](N)C(=O)O` [AEC, S-(2-aminoethyl)-L-cysteine], for which the MIC in the assay with N99/pRhtB worked out at 20 µg/mL; in the assay with N99/pRhtC, 5 µg/mL; with N99/pUC21 it was 5 µg/mL.

`CCC(O)C(N)C(=O)O` (stereo not drawn) [AHVA, α-amino-β-hydroxyvaleric-acid]: the MIC in the assay with N99/pRhtB is 2000 µg/mL; in the assay on N99/pRhtC, 15000 µg/mL; in the assay with N99/pUC21, 100 µg/mL.

`N[C@@H](Cc1c[nH]cn1)C(=O)O` [L-histidine]: the values for the MIC with N99/pRhtB, with N99/pRhtC and with N99/pUC21 were 5000 µg/mL, 40000 µg/mL and 5000 µg/mL, respectively.

On to `N[C@@H](CCO)C(=O)O` [L-homoserine], for which the MIC in the assay with N99/pRhtB was found to be 20000 µg/mL; with N99/pRhtC it was 1000 µg/mL; with N99/pUC21 it was 1000 µg/mL.

On to `C[C@@H](O)[C@H](N)C(=O)O` [L-threonine], for which the figures for the MIC in the assay on N99/pRhtB, in the assay on N99/pRhtC and in the assay with N99/pUC21 were 40000 µg/mL, 80000 µg/mL and 30000 µg/mL, respectively.

Turning to `CC(C)[C@H](N)C(=O)O` [L-valine], the MIC is 0.5 µg/mL in the assay on N99/pRhtB, 2 µg/mL with N99/pRhtC and 0.5 µg/mL in the assay on N99/pUC21.

In the case of `CO[C@H](C)[C@H](N)C(=O)O` [O-methyl-L-threonine], the MIC with N99/pRhtB, in the assay with N99/pRhtC and with N99/pUC21 was 20 µg/mL each time.
